From patent US8053415B2, “Compounds having RD targeting motifs” (Washington University in St. Louis, priority 2005, dated 2011)
“Also recorded” adds a separate entry of the source. Where two headings read alike, the source gives them in different places. Where a SMILES comes first, the peptide text is derived from it. Where no end group is shown, it is not given here. [ ]: non-standard residue; d: D form. The star is where a group is joined. Cypate = CC1(C)C(/C=C/C=C/C=C/C=C2/N(CCC(=O)*)c3ccc4ccccc4c3C2(C)C)=[N+](CCC(=O)O)c2ccc3ccccc3c21

Experiments:
[1] = system: A549 tumor; set-up: species or system mice; details: mouse, in vivo
Source text: The hypothesis that the “RD” motif was solely responsible for the tumor uptake was further tested by injecting ^111In-DOTA-GRD [SEQ ID NO:15] (120 μCi; 1 Ci=37 GBq) into A549 tumor-bearing mice.

[2] = system: A549 tumor; experiment: In vivo fluorescence optical imaging and ex vivo organ distribution in A549 tumor-bearing nude mice; details: for uptake / retention in A549 tumor: 0.3 μmol per kg via lateral tail vein, fluorescence imaging
Description: All in vivo studies were performed in compliance with the Washington University in St Louis Animal Study Committee's requirements for the care and use of laboratory animals in research. Nude mice (18-22 g) were anesthetized with xylazine/ketamine cocktail via intraperitoneal injection and placed in a supine position. The mice were injected subcutaneously with A549 cells (1×10^6) in the lower back of the mice. Tumor masses were palpable at 5-7 days post implant, which reached 5 mm in 10-15 days. Prior to injection of the probe, the mice were anesthetized as described above. A 29-gauge needle was used to inject the probes into the mouse via the lateral tail vein. The molecular probe (100 μL) was injected via the lateral tail vein at 0.3 μmol per kg of body weight. […] [SEQ ID NO:1] were constituted in a vial, and doses of 0.3 μmol per kg of body weight were injected into the A549 tumor-bearing mice.
A non-invasive in vivo continuous wave fluorescence imaging apparatus was used to visualize the distribution and preferential tissue uptake of the cypate-peptide molecular beacons in the nude mice (Achilefu (2004) Technol. Cancer Res. Treat. 3:393-409, incorporated herein by reference). Light from two laser diodes of nominal wavelength 780 nm and nominal power of 50 mW was launched into a fiber optic bundle. Two laser diodes were used to produce as much uniform illumination of the whole animal or organ parts as possible. The nominal 50 mW of incident power was reduced to about 44 mW at the output of the fiber optic bundle. A de-focusing lens in position after the bundle expanded the beam such that nearly the whole animal was illuminated. A Photometrics CCD camera (16 bit, 1024×1024 pixel, back illuminated, thermoelectric Peltier cooled with forced air) was used to capture the emitted photons. An interference filter (830 nm) was mounted in front of the CCD camera input lens such that only emitted fluorescent light from the contrast agent was imaged. Real-time acquisition, display and data processing software (WinView/32) was used to obtain the optical image. The samples were dissolved in 20% aqueous DMSO and animals were injected with doses of 0.3 μmol/kg body weight via the lateral tail vein. Injected volumes were 100 μL for each mouse. Data analysis consisted of subtracting (pixel by pixel) the pre-injection image from the post injection images, and displaying the false color results. Integration of the relative fluorescence intensities of tumor vs. surrounding tissues indicated the extent of selective uptake of the contrast agent. At the completion of the study, the mice were euthanized and some organ parts were excised and rinsed with water. The tissues were placed under the CCD camera and the fluorescence emission from each organ was measured after excitation with the 780 nm laser sources. Tissue parts, instead of whole organs, were used to minimize problems associated with depth-dependent non-linear fluorescence emission. A statistical program in the WinView package was used to estimate the mean fluorescence intensity per organ part.
In vivo optical imaging studies using the cypate-peptide optical probes were performed and analyzed as described above in Example 1. […]

[3] = target: T1, purified human αvβ3 integrin protein (Homo sapiens, UniProt P05106+P06756); experiment: Competitive αvβ3 integrin receptor binding assay with 125I-echistatin tracer (Example 2)
T1 construct: purchased Chemicon International, Inc. (Temecula, Calif.)
Description: The binding affinities were measured based on the competitive binding between purified αvβ3 integrin (ABI) and peptide ligands. Echistatin is a polypeptide that binds irreversibly with high affinity and specificity to ABI. ^125I-echistatin was used as a tracer in ABI binding assays.
Receptor binding assays were performed by using purified human αvβ3 integrin protein from Chemicon International, Inc. (Temecula, Calif.). Assays were carried out using the Millipore Duropore membrane 96-well plates and the Millipore MultiScreen system (Bedford, Mass.). The 96-well membrane plate was blocked with 0.1% Polythylenimine blocking solution overnight at 4° C. ^125I-echistatin (50 nmol/L) was added to the binding buffer (50 mM Tris-HCl, pH 7.4, 100 mM NaCl, 2 mM CaCl2, 1 mM MgCl2, 1 mM MnCl2, 1% BSA) containing integrin protein (50 ng per well in 96-well membrane plate) and ligands in a total volume of 200 μL per well. The concentration range of ligand was between 0.01 μM and 100 μM. The mixtures were incubated for 2 h at room temperature, the ABI was then filtered by centrifugation at 1500 g and washed three times with 0.20 mL of ice-cold binding buffer. The filters containing radioactivity bound ABI were removed using a punch apparatus and counted using a Packard Cobra II Auto-gamma counter (Meriden, Conn.). […] Radiolabeling of ^125I-echistatin (Amersham Biosciences, Piscataway, N.J.) was carried out in a mixture of 0.25% BSA, 5.0% lactose, 0.21% citric acid and aprotinin (0.9 TIU/ml).

[4] = Absorption and emission spectral properties in 20% aqueous DMSO; type: physicochemical
Description: The spectral properties of cypate and the cypate-peptide conjugates were determined in 20% aqueous DMSO, which solubilizes all the compounds. […] Absorbance measurements were performed with a Beckman Coulter DU 640 spectrophotometer. The fluorescence spectra were recorded on Fluorolog-3 fluorometer (HORIBA Jobin Yvon Inc., Edison, N.J.). To prepare the stock solutions, a high precision analytical balance was used to weigh >2 mg of each compound, which was dissolved in DMSO. The DMSO solutions were then diluted with water to obtain a final solution of 20% aqueous DMSO. An aliquot (known volume) of the solution was transferred to a cuvette with 1 μL precision micropipettes and diluted with 20% aqueous DMSO solvent mixture to give a working solution that absorbs at <1.0 absorbance unit. Aliquots of the working solution were diluted with 20% aqueous DMSO and used to determine the molar absorptivity of each compound. For fluorescence measurements, probe solutions with 0.1 absorbance units were used to minimize inner filter effects.
Previous studies have shown that this solvent mixture boosts fluorescence intensity and is well tolerated by rodents. Additionally, the dyes and their peptide conjugates are soluble in this solvent mixture, providing a common medium for spectral measurements.
Absorbance spectra were measured on a Beckman Coulter DU 640 UV-Visible spectrophotometer. Fluorescence spectra were recorded on a HORIBA Jobin Yvon Fluorolog-3 fluorometer. Stock solutions (1.0 mM) of the conjugates were prepared by dissolving each sample in 80% aqueous DMSO. UV-Vis and fluorescence measurements were carried out by adding 5.0 μL of the stock solutions via a micropipette into 3 mL of 20% aqueous DMSO in a quartz cuvette.

[5] = system: A549 cells; experiment: Cellular internalization and blocking studies by fluorescence microscopy (Example 1); details: for internalization in A549 cells: 1 μM
[6] = system: A549 cells; experiment: CyQuant cytotoxicity and proliferation assay; type: cell-based, human; details: 48 hours
Description: Cells were seeded at 2.5×10^4 cells/well and grown in 96 well plates in the presence of 0−1.5×10^−5 M cypate conjugated peptides for 24 or 48 hours. Cell proliferation was measured using the CyQuant proliferation assay from Molecular Probes (Eugene, Oreg.) per the manufacturer's protocol. Briefly, after incubation the microplate was inverted to remove the media and frozen at −70° C. overnight. The microplate was thawed at room temperature and 200 μL of the CyQuant GR dye/cell-lysis buffer was added to each well. […]
Because the Cyquant assay is based on the adherence of a dye to nucleic acids, the assay is a measure of both proliferative and cytotoxic effects.

[7] = Table 2, read-out: IC50 (αvβ3 integrin binding affinities)

With N=C(N)NCCC[C@H](NC(=O)CNC(=O)CN1CCN(CC(=O)O)CCN(CC(=O)O)CCN(CC(=O)O)CC1)C(=O)N[C@@H](CC(=O)O)C(=O)N[C@@H](CO)C(=O)N1CCC[C@H]1C(=O)N[C@@H](CCCCN)C(=O)O [^111In-DOTA-GRD, metal not drawn] (HELM PEPTIDE1{[O=C(O)CN1CCN(CC(=O)O)CCN(CC(=O)[*:2])CCN(CC(=O)O)CC1].G.R.D.S.P.K}$$$$V2.0) the “clearance (scintigraphy)” value [1] was “rapid renal clearance” and the “localization of the material” value [1] was “nearly all of the material localized in the bladder”.
In the case of CC1(C)C(/C=C/C=C/C=C/C=C2\N(CCCCS(=O)(=O)O)c3ccc4ccccc4c3C2(C)C)=[N+](CCCCS(=O)(=O)[O-])c2ccc3ccccc3c21 [indocyanine green, reference compound], the “uptake / retention in A549 tumor” value [2] is reported as “None of the three non-ABI-specific probes were retained in the A549 tumor tissue”.
Compound CC(C)[C@@H]1NC(=O)[C@@H](Cc2ccccc2)NC(=O)[C@H](CC(=O)O)NC(=O)CNC(=O)[C@H](CCCNC(=N)N)NC(=O)[C@H](CCCCN)NC1=O [Cyclo(DPhe-Val-Lys-Arg-Gly-Asp)-OH] (HELM PEPTIDE1{R.G.D.[dF].V.K}$PEPTIDE1,PEPTIDE1,1:R1-6:R2$$$V2.0) has an IC50 ([3]; Table 3, read-out: IC50) of 1.89 µM.
Work on CC1(C)C(=CC=CC=CC=CC2=[N+](CCC(=O)O)c3ccc4ccccc4c3C2(C)C)N(CCC(=O)N[C@H]2CSSC[C@@H](C(N)=O)NC(=O)[C@H](CC(=O)O)NC(=O)CNC(=O)[C@H](CCCNC(=N)N)NC2=O)c2ccc3ccccc3c21 [Cypate-cyclo(CRGDC)-NH2] (HELM PEPTIDE1{[CC1(C)C(/C=C/C=C/C=C/C=C2/N(CCC(=O)[*:2])c3ccc4ccccc4c3C2(C)C)=[N+](CCC(=O)O)c2ccc3ccccc3c21].C.R.G.D.C.[am]}$PEPTIDE1,PEPTIDE1,2:R3-6:R3$$$V2.0) yielded an IC50 [3, 7] of 4.6 µM.
In the case of “Cypate-3-GRDSPK ({Cypate‑3}-GRDSPK; listed as Homo sapiens) [Cyp-3-GRD]”, the “^abεmax” value [4] is reported as 128,538 cm^−1Mol^−1, the “^abλmax” value [4] is reported as 684 nm and the “^emλmax” value [4] is reported as 703 nm. The “internalization in A549 cells” value ([5]; 37° C.) was “internalized”, the “cellular localization at 4° C.” value ([5]; A549 cells incubated at 4° C.) was “remained in the peripheral region of the cell membrane” and the “translocation into the nucleus” value ([5]; A549 cells, 37° C.) was “did not translocate into the nucleus”.
With cytate [reference compound] the “uptake / retention in A549 tumor” value [2] was “None of the three non-ABI-specific probes were retained in the A549 tumor tissue”.
With “GRDSPK (listed as Homo sapiens) [GRD peptide]” the “blocking of Cyp-GRD uptake in the tumor by co-injection” value ([2]; equimolar, 0.3 μmol/kg body weight, 24 h post injection) was “unable to block”.
In the case of CC1(C)C(/C=C/C=C/C=C/C=C2/N(CCC(=O)O)c3ccc4ccccc4c3C2(C)C)=[N+](CCC(=O)[O-])c2ccc3ccccc3c21 [Cypate, cypate, reference compound], the “^abεmax” value [4] is reported as 244,400 cm^−1Mol^−1, the “^abλmax” value [4] is reported as 786 nm and the “^emλmax” value [4] is reported as 811 nm. For the same compound, the “internalization in A549 cells” value ([5]; 37° C.) was “did not internalize”, the “uptake / retention in A549 tumor” value [2] was “not retained in the tumor; also recorded: None of the three non-ABI-specific probes were retained in the A549 tumor tissue” and the “time of clearance from blood by the liver” value ([2]; after injection) was ≤ 4 h.
For CC(C)[C@@H]1NC(=O)[C@@H](Cc2ccccc2)NC(=O)[C@H](CC(=O)O)NC(=O)CNC(=O)[C@H](CCCNC(=N)N)NC(=O)[C@H](CCCCNC(=O)CCN2/C(=C/C=C/C=C/C=C/C3=[N+](CCC(=O)O)c4ccc5ccccc5c4C3(C)C)C(C)(C)c3c2ccc2ccccc32)NC1=O [Cyp-cyclo-RGD, Cypate-cyclo[RGDfVK^(Cypate)]] (cyclo(RGD[dF]VK(Cypate))), the “cytotoxicity (CyQuant), longer treatment” value [6] was “some cytotoxicity”, the “uptake / retention in A549 tumor” value [2] was “preferentially localized” and the “accumulation / retention in nontarget tissues” value ([2]; 24 h post injection) was “equally high”. For the same compound, the “retention in the tumor, cyclic versus linear Cyp-RGD” value ([2]; 24 h post injection) was “higher by a factor of three” and the IC50 [3, 7] was 79.5 µM.
With CC(C)[C@H](NC(=O)[C@@H](NC(=O)[C@@H]1CSSC[C@H](NC(=O)[C@H](N)Cc2ccccc2)C(=O)N[C@@H](Cc2ccc(O)cc2)C(=O)N[C@H](Cc2c[nH]c3ccccc23)C(=O)N[C@@H](CCCCN)C(=O)N[C@@H]([C@@H](C)O)C(=O)N1)[C@@H](C)O)C(=O)N[C@@H](CCCNC(=N)N)C(=O)NCC(=O)N[C@@H](CC(=O)O)C(N)=O [H-DPhe-Cyclo(Cys-Tyr-DTrp-Lys-Thr-Cys)-Thr-Val-Arg-Gly-Asp-NH2] (HELM PEPTIDE1{[dF].C.Y.[dW].K.T.C.T.V.R.G.D.[am]}$PEPTIDE1,PEPTIDE1,2:R3-7:R3$$$V2.0) the IC50 ([3]; Table 3, read-out: IC50) was 0.722 µM.
